Measurements reported in patent US7524927B2, “Compositions, method and kits relating to deletion mutations of immunodeficiency virus gp120 hypervariable regions” (priority 2003, dated 2009).
Read-outs that look alike come from different tables or passages of the source.

Legend:
ΔV3(6,6) virus = settings: SupT1 cells
Description: (§1) Each virus was innoculated onto SupT1 cells in the presence of varying concentrations of AMD3100 (0, 10, 100, 1,000, and 10,000 nm as indicated).
(§2) This bicyclam specifically blocks CXCR4 function and its ability to serve as a receptor for X4 Envs by binding to two Asp residues at the base of the CXCR4 second and […] extracellular loops.

ΔV1/V2; ΔV3(6,6) virus = settings: SupT1 cells
Description: as §2

[1] = tested on: HIV-2/VCP virus (wildtype VCP); assay: microbe, parasite or virus in culture
Description: as §1, §2

V3(6,6) Env pseudotype = settings: U87/CD4/CXCR4 target cells
Method: (§3) FIG. 9B is a diagram depicting AMD3100 sensitivity for viral pseudotypes containing the indicated Envs as indicated, i.e., VCP, V3(6,6); V1/V2, and V3(6,6). Sensitivity to AMD3100 was assessed using U87/CD4/CXCR4 target cells. Two different Env clones comprising deletion of V3(6,6) in combination with deletion of V1/V2 are depicted.

[2] = tested on: V3(6,6); V1/V2 Env pseudotypes; settings: U87/CD4/CXCR4 target cells; two Env clones
Method: as §3

VCP Env pseudotype = settings: U87/CD4/CXCR4 target cells
Method: as §3

CXCR4 = biological target: T1, CXCR4 (Homo sapiens, UniProt P61073); format: binding
T1 construct: expressed in transfected cells
Method: Western blot binding assay. […] In this assay, the gp120 of interest is added to cells expressing the desired coreceptor either in the absence or presence of sCD4. After binding for 30 min, the cells are washed, lysed, and bound gp120 detected by western blot.

T1 sequence (P61073 whole entry): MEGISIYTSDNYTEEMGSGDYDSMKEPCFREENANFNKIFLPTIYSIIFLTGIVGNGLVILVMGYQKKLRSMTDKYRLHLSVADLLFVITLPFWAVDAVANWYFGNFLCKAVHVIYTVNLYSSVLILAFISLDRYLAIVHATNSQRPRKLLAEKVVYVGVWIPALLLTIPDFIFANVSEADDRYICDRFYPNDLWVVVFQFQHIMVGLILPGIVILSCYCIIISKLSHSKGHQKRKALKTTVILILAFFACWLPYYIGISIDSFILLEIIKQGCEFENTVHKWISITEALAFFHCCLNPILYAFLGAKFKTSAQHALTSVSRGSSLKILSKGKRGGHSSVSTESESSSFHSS

## c1cc(CN2CCCNCCNCCCNCC2)ccc1CN1CCCNCCNCCCNCC1 [AMD3100]
ΔV3(6,6) virus; adapted (p16) virus, up to 10,000 nm AMD3100
  Resistance of virus to AMD3100: completely resistant
ΔV3(6,6) virus; ΔV3(6,6) virus
  AMD3100 concentration at which virus could not be blocked: greater than 10,000 nM
ΔV1/V2; ΔV3(6,6) virus
  AMD3100 concentration at which virus could not be blocked: greater than 10,000 nM
[1]; 0, 10, 100, 1,000, and 10,000 nm AMD3100, SupT1 cells
  Sensitivity of virus to AMD3100: sensitive
[1]; Human immunodeficiency virus 2, SUP-T1, read-out: IC50 for inhibition of infection of SupT1 cells
  IC50: ~50 nM
V3(6,6) Env pseudotype
  AMD3100 sensitivity of pseudotype: complete resistance
[2]
  AMD3100 sensitivity of pseudotype: complete resistance
VCP Env pseudotype
  AMD3100 sensitivity of pseudotype: sensitivity
CXCR4
  Inhibition of VCP gp120 binding to CXCR4-expressing cells: inhibitable

## SDF-1: natural chemokine ligand of CXCR4 [reference compound]
CXCR4; VCP gp120
  Inhibition of VCP gp120 binding to CXCR4-expressing cells: inhibitable
